Measured values reported in the supplement of paper PMC10307832.

Columns and labels:
Experiment in all cases: relative viability (nuclei count vs DMSO), 5 days (fraction); higher = more cells survive
Serdemetan + Vorinostat = compound: c1ccc2c(CCNc3ccc(Nc4ccncc4)cc3)c[nH]c2c1 [Serdemetan] + O=C(CCCCCCC(=O)Nc1ccccc1)NO [Vorinostat] (partner 1 µM)
In short: (§1)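 Medians of duplicate plates are given as relative viability. That measure is the nuclei count in treated wells divided by the count in vehicle wells. Counts were taken on 4× images of lung cancer cell lines in 1536-well plates, 5 days after pin-tool dosing the day after seeding with one drug alone or a fixed anchor-drug dose plus five library-drug doses (not always all listed) in √10 steps.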

Serdemetan + OSI-027 = compound: c1ccc2c(CCNc3ccc(Nc4ccncc4)cc3)c[nH]c2c1 [Serdemetan] + COc1cccc2cc(-c3nc([C@H]4CC[C@H](C(=O)O)CC4)n4ncnc(N)c34)[nH]c12 [OSI-027] (partner 0.5 µM)
In short: as §1

Selisistat + Luminespib = compound: C1CC(C2=C(C1)C3=C(N2)C=CC(=C3)Cl)C(=O)N [Selisistat] + CCNC(=O)c1noc(-c2cc(C(C)C)c(O)cc2O)c1-c1ccc(CN2CCOCC2)cc1 [Luminespib] (partner 0.01 µM)
In short: as §1

Serdemetan + Palbociclib = compound: c1ccc2c(CCNc3ccc(Nc4ccncc4)cc3)c[nH]c2c1 [Serdemetan] + CC(=O)c1c(C)c2cnc(Nc3ccc(N4CCNCC4)cn3)nc2n(C2CCCC2)c1=O [Palbociclib] (partner 0.5 µM)
In short: as §1

UMC-11
relative viability (Serdemetan + Vorinostat; first compound 0.04 µM): 0.412 | relative viability (Serdemetan + Vorinostat; first compound 0.1265 µM): 0.445 | relative viability (Serdemetan + Vorinostat; first compound 0.4 µM): 0.37 | relative viability (Serdemetan + Vorinostat; first compound 1.265 µM): 0.268 | relative viability (Serdemetan + Vorinostat; first compound 4 µM): 0.335 | relative viability (Serdemetan + OSI-027; first compound 0.04 µM): 0.563 | relative viability (Serdemetan + OSI-027; first compound 0.1265 µM): 0.485 | relative viability (Serdemetan + OSI-027; first compound 4 µM): 0.428 | relative viability (Selisistat + Luminespib; first compound 0.4 µM): 1.03 | relative viability (Selisistat + Luminespib; first compound 1.265 µM): 0.931 | relative viability (Selisistat + Luminespib; first compound 4 µM): 0.896 | relative viability (Selisistat + Luminespib; first compound 12.65 µM): 1.09 | relative viability (Selisistat + Luminespib; first compound 40 µM): 1 | relative viability (Serdemetan + Palbociclib; first compound 0.04 µM): 0.333 | relative viability (Serdemetan + Palbociclib; first compound 0.1265 µM): 0.343 | relative viability (Serdemetan + Palbociclib; first compound 0.4 µM): 0.381 | relative viability (Serdemetan + Palbociclib; first compound 1.265 µM): 0.344 | relative viability (Serdemetan + Palbociclib; first compound 4 µM): 0.281
